Assay results published in patent US20060263802A1 (priority 2003, published 2006).

Tests used:
Assay type in all cases: binding
[1] = tested on: human monoclonal antibody CRJA
[2] = tested on: human monoclonal antibody CRJB
[3] = tested on: human monoclonal antibody CRJB; remark: listed apart in the source
[4] = tested on: human monoclonal antibody CR57
[5] = tested on: human monoclonal antibody CR57; remark: listed apart in the source
[6] = tested on: human monoclonal antibody CRJA; remark: listed apart in the source

Sequence	Binding of CRJA to linear peptide (PEPSCAN-ELISA signal) [1]	Binding of CRJB (10 μg/ml) to looped/cyclic peptide (PEPSCAN-ELISA signal) [2]	Binding of CRJB to linear peptide (PEPSCAN-ELISA signal) [3]	Binding of CR57 to linear peptide (PEPSCAN-ELISA signal) [4]	Binding of CR57 (10 μg/ml) to looped/cyclic peptide (PEPSCAN-ELISA signal) [5]	Binding of CRJA (10 μg/ml) to looped/cyclic peptide (PEPSCAN-ELISA signal) [6]	Binding of CRJB (10 μg/ml) to looped/cyclic peptide (PEPSCAN-ELISA) [2]	binding of antibody CR57 to linear peptide (PEPSCAN OD) [4]	Binding of CR57 (10 μg/ml) to looped/cyclic peptide (PEPSCAN-ELISA) [5]	Binding of CRJA (10 μg/ml) to looped/cyclic peptide (PEPSCAN-ELISA) [6]	Binding of human monoclonal antibody CRJA to linear peptide (PEPSCAN-ELISA signal) [1]	Binding of CRJB to looped/cyclic peptide (PEPSCAN-ELISA signal) [2]	Binding of human monoclonal antibody CRJB to linear peptide (PEPSCAN-ELISA signal) [3]	Binding of human monoclonal antibody CR57 to linear peptide (PEPSCAN-ELISA signal) [4]	Binding of CR57 to looped/cyclic peptide (PEPSCAN-ELISA signal) [5]	Binding of CRJA to looped/cyclic peptide (PEPSCAN-ELISA signal) [6]
TYCSTNHDYTIWMPE	87	93	107	96	104	97										
SLKGACKLKLCGVLG	99		111	200			79	bound	129	106						
VHNQVSGVDLGLPNW											120	106	119	100	125	106
EAEDFVEVHLPDVHN											97	93	117	76	98	105
ENPRLGMSCDIFTNS	101	88	118	71	100	113										
TNFVGYVTTTFKRKH	96	99	125	71	79	96										
VSSTYCSTNHDYTIW	80	61	107	78	89	88										
TNSRGKRASKGSETC	89	104	108	68	107	104										
PLVHPLADPSTVFKD	90		112	93			90		101	104						
GKRASKGSETCGFVD	97		124	92			71		82	93						
MNGFTCTGVVTEAEN	87	118	99	69	85	78										
AMQTSNETKWCPPDQ	85		114	104			58		84	90						
RWLRTVKTTKESLVI	72	75	110	40	77	71										
YILAIKMNGFTCTGV	45	49	107	47	55	45										
GMSCDIFTNSRGKRA	71	78	120	54	79	51										
VRTWNEILPSKGCLR	105		124	90			98		121	114						
YNWKMAGDPRYEESL	110	89	118	83	89	98										
GFGKAYTIFNKTLME	98		123	78			83		94	86						
SVADLDPYDRSLHSR	92	71	106	49	58	83										
ELVRKREECLDALES	97		113	82			71		93	98						
VTEAENYTNFVGYVT	79	80	90	79	84	97										
ELLESSVIPLVHPLA	85		133	90			88		112	73						
DYRWLRTVKTTKESL	55	49	111	54	46	45										
GYILAIKMNGFTCTG	73	61	90	75	87	72										
ESLHNPYPDYRWLRT	80	92	132	92	123	106										
FVEVHLPDVHNQVSG											93	101	143	92	150	103
RGKRASKGSETCGFV	87		104	75			68		101	102						
IILGPDGNVLIPEMQ	80		118	85			83		99	107						
VFFNGIILGPDGNVL	82		132	55			93		110	83						
